Reference: article PMC6691826, “1D NMR WaterLOGSY as an efficient method for fragment-based lead discovery” (Journal of Enzyme Inhibition and Medicinal Chemistry, 2019)
Values belong to the compound of their own block, whether it stands above or below them.

Assays:
[1] = target: T1, human serum albumin (HSA) (Homo sapiens, UniProt P02768); assay: Dissociation constant of fragment bound to HSA; format: binding
T1 construct: purchased Sigma A3782

[2] = target: T1, human serum albumin (HSA); assay: WaterLOGSY NMR epitope mapping, HSA; format: binding; conditions: all protons, bound to HSA, 1.5 s mixing time, normalised
Procedure: (§1) NMR samples for STD experiments consisted of 400 µM fragment in 0.5% DMSO-d6 and 10% D2O (v/v) together with a protein concentration of 20 µM for peroxiredoxin and HSP90, 10 µM for Bcl-xL, 15 µM for Mcl-1, 2 µM for glycogen phosphorylase, and 5 µM for HSA.
(§2) Standard 1 D, STD, and WaterLOGSY NMR spectra were acquired at 20 °C with an Agilent Inova 600 MHz NMR spectrometer, equipped with a room temperature 5 mm triple-resonance inverse probe with z-axis field gradient and a Bruker 600 MHz NMR spectrometer, equipped with a Z-gradient cryoprobe.
(§3) WaterLOGSY mixing time was 1.5 s, and additional experiments were performed with 0.75 s and 0.25 s mixing time. Both STD and WaterLOGSY spectra were recorded for each sample. WaterLOGSY spectra in the absence of protein receptor were recorded with 400 µM compound. All the NMR experiments were performed at 293 K with excitation sculpting to suppress peaks from water. […] The STD factors were calculated according to the following equation: R=(ISTD/I1D)×100) were ISTD and I1D are the intensity of proton resonances of the STD and the 1 D proton spectra, respectively. […]
(§4) This is due to the WaterLOGSY mechanism that involves magnetisation transfer from bulk water. Therefore, we propose the following protocol to quantitatively evaluate the WaterLOGSY signals of the protons of a compound bound to its receptor. […]

[3] = target: N-terminal domain (9–236) of HSP90; parameters: method as in PMID 20718493; conditions: bound to HSP90; cited from earlier work
[4] = target: T2, N-terminal domain of HSP90 (Homo sapiens, UniProt P07900); assay: WaterLOGSY NMR epitope mapping, HSP90; format: binding; conditions: proton H1, bound to HSP90, 1.5 s mixing time, normalised
T2 construct: the N-terminal domain (9–236) of HSP-90 were produced and purified; made in house; host or cells: Escherichia coli
Procedure: as §1, §2, §3, §4

Bcl-xL = target: Bcl-xL; parameters: method as in PMID 16420051; conditions: bound to Bcl-xL; cited from earlier work
[5] = target: T3, glycogen phosphorylase (GP) (Oryctolagus cuniculus, UniProt P00489); assay: Dissociation constant of fragment bound to GP; format: binding, rabbit; conditions: unpublished data
T3 sequence (P00489 1-843): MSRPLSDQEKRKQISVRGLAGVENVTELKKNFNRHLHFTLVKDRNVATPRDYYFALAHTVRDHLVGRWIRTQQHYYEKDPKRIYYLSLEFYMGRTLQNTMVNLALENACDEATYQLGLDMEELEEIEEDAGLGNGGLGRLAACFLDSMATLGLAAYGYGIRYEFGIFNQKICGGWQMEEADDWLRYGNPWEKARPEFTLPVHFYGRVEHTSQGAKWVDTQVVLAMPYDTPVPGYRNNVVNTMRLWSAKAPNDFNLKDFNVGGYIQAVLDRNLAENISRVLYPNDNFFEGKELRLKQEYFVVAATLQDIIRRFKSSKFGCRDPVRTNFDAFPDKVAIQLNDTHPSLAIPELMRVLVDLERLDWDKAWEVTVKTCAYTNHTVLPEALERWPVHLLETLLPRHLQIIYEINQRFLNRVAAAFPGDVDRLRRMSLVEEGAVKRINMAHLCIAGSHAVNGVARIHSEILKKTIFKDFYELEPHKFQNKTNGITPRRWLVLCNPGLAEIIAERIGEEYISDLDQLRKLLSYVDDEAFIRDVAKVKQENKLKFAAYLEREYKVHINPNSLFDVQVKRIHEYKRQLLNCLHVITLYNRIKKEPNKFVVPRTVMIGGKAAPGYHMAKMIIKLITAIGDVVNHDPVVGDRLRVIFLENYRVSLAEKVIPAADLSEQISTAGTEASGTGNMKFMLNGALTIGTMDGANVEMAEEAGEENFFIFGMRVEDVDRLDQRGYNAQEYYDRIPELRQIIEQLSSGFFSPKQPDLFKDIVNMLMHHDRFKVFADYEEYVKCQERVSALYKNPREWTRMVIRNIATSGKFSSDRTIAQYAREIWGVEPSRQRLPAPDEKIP

T1 sequence (P02768 25-609): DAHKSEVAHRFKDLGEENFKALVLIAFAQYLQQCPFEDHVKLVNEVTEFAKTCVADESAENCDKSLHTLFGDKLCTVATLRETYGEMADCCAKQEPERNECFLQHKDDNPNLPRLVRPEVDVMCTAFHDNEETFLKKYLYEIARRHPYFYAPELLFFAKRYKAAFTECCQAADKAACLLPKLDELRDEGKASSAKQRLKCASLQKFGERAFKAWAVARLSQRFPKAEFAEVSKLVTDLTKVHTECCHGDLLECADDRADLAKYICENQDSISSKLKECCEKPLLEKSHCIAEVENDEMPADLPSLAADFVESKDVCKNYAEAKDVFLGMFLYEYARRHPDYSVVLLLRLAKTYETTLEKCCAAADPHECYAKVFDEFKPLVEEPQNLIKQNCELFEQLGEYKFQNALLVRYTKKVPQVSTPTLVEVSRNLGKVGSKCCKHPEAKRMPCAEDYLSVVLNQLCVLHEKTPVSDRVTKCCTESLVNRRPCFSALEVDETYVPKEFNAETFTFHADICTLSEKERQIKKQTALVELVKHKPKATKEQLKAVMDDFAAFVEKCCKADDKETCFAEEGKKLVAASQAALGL

- Kd [1]: > 1 mM
- WLOGSY factor [2]: 100%
SMILES: Cc1ccc(O)c(O)c1 [Compound 1, 4-methylcatechol]

- WLOGSY factor [4]: 10%
SMILES: CCN(CC)C(=O)c1ccc(O)c(OC)c1 [Compound 4, N,N-diethylvanillamide]
- Kd [3]: 790 µM

SMILES: O=C(O)c1ccc(-c2ccc(F)cc2)cc1 [Compound 5, 4′-fluoro-[1,1′-biphenyl]-4-carboxylic acid]
- Kd (Bcl-xL): 300 µM

- Kd [5]: > 1 mM
SMILES: O=C(O)c1ccc(Oc2ccccc2)cc1 [Compound 6, 4-phenoxybenzoic acid]
